Source: patent US12187723B2 (BRISTOL-MYERS SQUIBB COMPANY, priority 2019, dated 2025)
pIC50: −log10 of the molar value.

Key:
[1] = target: T1, human TLR9 (Homo sapiens, UniProt Q9NR96); test: TLR9 inhibition reporter assay (HEK-Blue SEAP); assay type: cell-based; conditions: HEK-Blue cells overexpressing human TLR9, ODN2006 5 nM, 22 hour incubation
T1 construct: host or cells: HEK-Blue cells
T1 sequence (Q9NR96 26-1032): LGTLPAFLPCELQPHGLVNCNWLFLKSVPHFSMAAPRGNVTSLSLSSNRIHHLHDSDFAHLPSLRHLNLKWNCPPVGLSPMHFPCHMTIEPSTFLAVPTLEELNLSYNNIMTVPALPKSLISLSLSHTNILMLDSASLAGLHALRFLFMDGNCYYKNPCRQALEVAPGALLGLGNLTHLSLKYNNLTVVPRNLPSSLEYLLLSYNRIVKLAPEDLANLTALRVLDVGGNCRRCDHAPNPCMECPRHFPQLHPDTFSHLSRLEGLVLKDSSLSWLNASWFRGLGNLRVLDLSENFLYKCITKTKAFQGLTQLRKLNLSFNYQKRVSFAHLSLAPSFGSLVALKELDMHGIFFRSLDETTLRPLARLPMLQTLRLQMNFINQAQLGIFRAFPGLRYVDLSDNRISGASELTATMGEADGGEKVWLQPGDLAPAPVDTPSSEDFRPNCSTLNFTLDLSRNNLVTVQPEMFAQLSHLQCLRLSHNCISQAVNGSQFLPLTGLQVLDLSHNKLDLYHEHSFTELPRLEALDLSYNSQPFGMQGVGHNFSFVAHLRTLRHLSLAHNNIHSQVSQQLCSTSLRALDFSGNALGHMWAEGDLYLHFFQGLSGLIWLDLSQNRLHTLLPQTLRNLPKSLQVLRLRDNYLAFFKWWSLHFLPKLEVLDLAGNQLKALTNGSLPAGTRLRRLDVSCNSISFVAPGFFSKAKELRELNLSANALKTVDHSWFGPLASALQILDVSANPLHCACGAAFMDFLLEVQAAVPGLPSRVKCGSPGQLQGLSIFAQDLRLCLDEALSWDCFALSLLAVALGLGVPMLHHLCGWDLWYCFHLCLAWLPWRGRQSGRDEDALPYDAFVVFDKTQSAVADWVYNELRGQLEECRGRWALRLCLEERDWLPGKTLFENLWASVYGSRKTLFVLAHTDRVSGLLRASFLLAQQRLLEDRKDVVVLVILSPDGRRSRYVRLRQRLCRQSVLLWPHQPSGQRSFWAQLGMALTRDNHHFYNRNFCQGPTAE
Procedure, shortened: (§1)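 Screening used HEK-Blue cells overexpressing one human TLR (7, 8 or 9) and an IFN-β minimal promoter–NF-κB/AP-1 SEAP construct. Stimulation lasted 22 h at 37 °C with receptor-specific agonist: gardiquimod, R848 or ODN2006 at 7.5 μM, 15.9 μM and 5 nM.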

[2] = target: T2, human TLR8 (Homo sapiens, UniProt Q9NR97); test: TLR8 inhibition reporter assay (HEK-Blue SEAP); assay type: cell-based; conditions: HEK-Blue cells overexpressing human TLR8, R848 15.9 μM, 22 hour incubation
T2 construct: host or cells: HEK-Blue cells
T2 sequence (Q9NR97 27-1041): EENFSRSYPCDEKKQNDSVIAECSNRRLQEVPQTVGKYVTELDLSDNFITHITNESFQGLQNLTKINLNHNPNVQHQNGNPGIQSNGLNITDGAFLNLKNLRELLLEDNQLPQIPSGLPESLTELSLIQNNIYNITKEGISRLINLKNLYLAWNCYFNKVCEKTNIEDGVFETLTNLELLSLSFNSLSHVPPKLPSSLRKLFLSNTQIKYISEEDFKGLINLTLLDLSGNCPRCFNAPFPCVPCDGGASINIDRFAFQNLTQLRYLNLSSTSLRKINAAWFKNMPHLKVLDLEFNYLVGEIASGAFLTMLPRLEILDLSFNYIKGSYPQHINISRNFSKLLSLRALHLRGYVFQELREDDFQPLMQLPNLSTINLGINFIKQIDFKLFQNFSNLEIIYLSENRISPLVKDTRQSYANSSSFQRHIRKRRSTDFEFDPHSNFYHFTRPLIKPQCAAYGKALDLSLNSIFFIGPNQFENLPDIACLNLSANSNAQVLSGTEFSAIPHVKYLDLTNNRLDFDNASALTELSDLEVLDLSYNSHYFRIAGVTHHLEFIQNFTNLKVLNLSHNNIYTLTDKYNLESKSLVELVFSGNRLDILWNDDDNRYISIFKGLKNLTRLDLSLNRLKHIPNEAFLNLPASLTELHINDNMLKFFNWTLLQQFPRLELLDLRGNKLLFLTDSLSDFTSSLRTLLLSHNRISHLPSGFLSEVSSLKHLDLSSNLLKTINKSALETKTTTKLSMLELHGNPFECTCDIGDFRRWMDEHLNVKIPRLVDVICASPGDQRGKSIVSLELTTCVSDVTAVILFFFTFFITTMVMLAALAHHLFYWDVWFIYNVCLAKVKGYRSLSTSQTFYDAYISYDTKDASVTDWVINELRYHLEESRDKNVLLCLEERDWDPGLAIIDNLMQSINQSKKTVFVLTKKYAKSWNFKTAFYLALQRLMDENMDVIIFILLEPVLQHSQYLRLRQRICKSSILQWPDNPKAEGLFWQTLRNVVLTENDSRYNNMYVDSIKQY
Procedure, shortened: as §1

pIC50 [1]	pIC50 [2]	SMILES
4.85	8.47	COc1cc(-c2cc3[nH]c(=O)n(C4CCC(N5CC6(COC6)C5)CC4)c3cc2C(C)C)cn2ncnc12 (stereo not drawn) [Example 254, 1-(4-(2-oxa-6-azaspiro[3.3]heptan-6-yl)cyclohexyl)-6-isopropyl-5-(8-methoxy-[1,2,4]triazolo[1,5-a]pyridin-6-yl)-1,3-dihydro-2H-benzo[d]imidazol-2-one]
4.63	8.86	COCCNC1CCC(n2c(=O)[nH]c3cc(-c4cn5ncnc5c(OC)c4C)c(C(C)C)cc32)CC1 (stereo not drawn) [Example 257]
4.61	9.22	COCCNC1CCC(n2c(=O)[nH]c3cc(-c4cn5ncnc5c(OC)c4C)c(C(C)C)cc32)CC1 (stereo not drawn) [Example 258]
4.72	8.57	COc1c(C)c(-c2cc3[nH]c(=O)n(C4CCC(N5CC(OC)C5)CC4)c3cc2C(C)C)cn2ncnc12 (stereo not drawn) [Example 265, 6-isopropyl-5-(8-methoxy-7-methyl-[1,2,4]triazolo[1,5-a]pyridin-6-yl)-1-(4-(3-methoxyazetidin-1-yl)cyclohexyl)-1,3-dihydro-2H-benzo[d]imidazol-2-one]
4.64	8.35	COc1c(C)c(-c2cc3[nH]c(=O)n(C4CCC(N5CC(OC)C5)CC4)c3cc2C(C)C)cn2ncnc12 (stereo not drawn) [Example 266, 6-isopropyl-5-(8-methoxy-7-methyl-[1,2,4]triazolo[1,5-a]pyridin-6-yl)-1-(4-(3-methoxyazetidin-1-yl)cyclohexyl)-1,3-dihydro-2H-benzo[d]imidazol-2-one]
5.09	9.44	Cc1c(-c2cc3[nH]c(=O)n(C4CCC(N5CCCOCC5)CC4)c3cc2C(C)C)cn2ncnc2c1C (stereo not drawn) [Example 271, 1-(4-(1,4-oxazepan-4-yl)cyclohexyl)-5-(7,8-dimethyl-[1,2,4]triazolo[1,5-a]pyridin-6-yl)-6-isopropyl-1,3-dihydro-2H-benzo[d]imidazol-2-one]
5.17	9.31	Cc1c(-c2cc3[nH]c(=O)n(C4CCC(N5CCCOCC5)CC4)c3cc2C(C)C)cn2ncnc2c1C (stereo not drawn) [Example 272, 1-(4-(1,4-oxazepan-4-yl)cyclohexyl)-5-(7,8-dimethyl-[1,2,4]triazolo[1,5-a]pyridin-6-yl)-6-isopropyl-1,3-dihydro-2H-benzo[d]imidazol-2-one]
4.87	9.06	Cc1c(-c2cc3[nH]c(=O)n(C4CCC(N5CCCC(F)C5)CC4)c3cc2C(C)C)cn2ncnc2c1C (stereo not drawn) [Example 273, 5-(7,8-dimethyl-[1,2,4]triazolo[1,5-a]pyridin-6-yl)-1-(4-(3-fluoropiperidin-1-yl)cyclohexyl)-6-isopropyl-1,3-dihydro-2H-benzo[d]imidazol-2-one]
4.77	8.96	Cc1c(-c2cc3[nH]c(=O)n(C4CCC(N5CCCC(F)C5)CC4)c3cc2C(C)C)cn2ncnc2c1C (stereo not drawn) [Example 274, 5-(7,8-dimethyl-[1,2,4]triazolo[1,5-a]pyridin-6-yl)-1-(4-(3-fluoropiperidin-1-yl)cyclohexyl)-6-isopropyl-1,3-dihydro-2H-benzo[d]imidazol-2-one]
4.97	8.82	Cc1c(-c2cc3[nH]c(=O)n(C4CCC(N5CC(F)C5)CC4)c3cc2C(C)C)cn2ncnc2c1C (stereo not drawn) [Example 279, 5-(7,8-dimethyl-[1,2,4]triazolo[1,5-a]pyridin-6-yl)-1-(4-(3-fluoroazetidin-1-yl)cyclohexyl)-6-isopropyl-1,3-dihydro-2H-benzo[d]imidazol-2-one]
4.69	8.56	Cc1c(-c2cc3[nH]c(=O)n(C4CCC(N5CC(F)C5)CC4)c3cc2C(C)C)cn2ncnc2c1C (stereo not drawn) [Example 280, 5-(7,8-dimethyl-[1,2,4]triazolo[1,5-a]pyridin-6-yl)-1-(4-(3-fluoroazetidin-1-yl)cyclohexyl)-6-isopropyl-1,3-dihydro-2H-benzo[d]imidazol-2-one]
5.45	9.74	COc1cc(-c2cc3[nH]c(=O)n(C4CCC(N5CCC(OC)C5)CC4)c3cc2C(C)C)cn2ncnc12 (stereo not drawn) [Example 284, 6-isopropyl-5-(8-methoxy-[1,2,4]triazolo[1,5-a]pyridin-6-yl)-1-(4-(3-methoxypyrrolidin-1-yl)cyclohexyl)-1,3-dihydro-2H-benzo[d]imidazol-2-one]
5.08	9.89	COc1cc(-c2cc3[nH]c(=O)n(C4CCC(N5CCC(OC)C5)CC4)c3cc2C(C)C)cn2ncnc12 (stereo not drawn) [Example 285, 6-isopropyl-5-(8-methoxy-[1,2,4]triazolo[1,5-a]pyridin-6-yl)-1-(4-(3-methoxypyrrolidin-1-yl)cyclohexyl)-1,3-dihydro-2H-benzo[d]imidazol-2-one]
5.37	9.05	COc1cc(-c2cc3[nH]c(=O)n(C4CCC(N5CC[C@H](F)C5)CC4)c3cc2C(C)C)cn2ncnc12 (stereo partly drawn) [Example 286, (S)-1-(4-(3-fluoropyrrolidin-1-yl)cyclohexyl)-6-isopropyl-5-(8-methoxy-[1,2,4]triazolo[1,5-a]pyridin-6-yl)-1,3-dihydro-2H-benzo[d]imidazol-2-one]
4.96	8.78	COc1cc(-c2cc3[nH]c(=O)n(C4CCC(N5CC[C@H](F)C5)CC4)c3cc2C(C)C)cn2ncnc12 (stereo partly drawn) [Example 287, (S)-1-(4-(3-fluoropyrrolidin-1-yl)cyclohexyl)-6-isopropyl-5-(8-methoxy-[1,2,4]triazolo[1,5-a]pyridin-6-yl)-1,3-dihydro-2H-benzo[d]imidazol-2-one]
